Assay results taken from patent US9206136B2, “Pyrazolyl-based carboxamides I” (Grünenthal GmbH, priority 2013, dated 2015).

Experiments:
[1] = biological target: T1, CRAC channel (endogenous SOC in HEK293 cells) (Homo sapiens, UniProt Q96D31); assay: HEK Calcium Influx Assay (FLIPR); format: cell-based; conditions: 10 μM compound, thapsigargin store depletion, Ca2+ signal 9.5-10 min post-administration, read-out: % inhib. [@ 10 μM] FLIPR
T1 construct: host or cells: HEK293
Procedure: Compounds of the invention have been tested for their effects on CRAC channels according to the following or similar procedures.
The effect of compounds of the invention on intracellular [Ca^2+] was tested in the HEK293 cell line (ECACC).
HEK293 cells were cultured in DMEM/F12/Glutamax (Gibco) containing 10% FCS (Gibco), and maintained at 37° C., 5% CO2. Cell were split twice a week [3·10^6 (Mon-Thu) and 1·10^6 (Thu-Mon) cells/50 ml medium in T-175 ZK culture flasks, respectively]. 24 hours pre-experiment, cells were seeded on 96 well plates (Poly-D-Lysine 96well Black/Clear Plate, BD Biocoat REF 356640) at a density of 40,000 cells/well in DMEM/F12 (Gibco) containing 10% FCS (Gibco), and maintained at 37° C., 5% CO2.
Prior to store-depletion, cell culture medium was removed and cells were loaded with the a Ca^2+-sensitive fluorescent dye comprised within the Calcium-4-assay kit (Molecular Devices) in nominally Ca^2+-free HBS buffer (140 mM NaCl, 4 mM KCl, 0.2 mM MgCl2, 11 mM D-glucose, and 10 mM HEPES, pH 7.4) according to manufacturer's instruction for 60 min at 37° C., 5% CO2.
Passive depletion of intracellular Ca^2+-stores was then triggered by employing the SERCA inhibitor thapsigargin (2 μM final) for 10 min in the dark (rt). To prevent immediate Ca^2+-entry via the activated Store-operated channels (SOCs), cells were maintained in Ca^2+-free HBS buffer comprising 100 μM EGTA during store-depletion.
Intracellular changes in [Ca^2+] were subsequently monitored with the FLIPR device (Molecular Devices). In brief, baseline imaging post-store depletion was allowed for 1 min before adjusting the extracellular buffer to 3 mM CaCl2. Increases in intracellular [Ca^2+] due to pre-activated SOC channels were monitored for 15 min until intracellular Ca^2+ levels had declined into a steady-state. Finally, compounds were administered and Ca^2+ signals were recorded for additional 10 min.
Inhibition of endogenous SOC in HEK293 cells was quantified employing the average Ca^2+ signal measured from 9.5-10 min post-administration. Zero percent inhibition (MAX) was defined as the Ca^2+ signal recorded from wells to which DMSO-only had been added instead of compound. Hundred percent inhibition (MIN) was defined as the signal obtained from wells in which cells haven't been treated with TG prior to Ca^2+ addition and to which DMSO-only had been added instead of compound. For routine IC50 determinations of compounds, 8 concentrations of a serial dilution (1:3.16) were tested, starting off from 10 μM. Reliable IC50's could consequently be determined only, if they were at least sub 2.5-3 μM.

[2] = tested on: Interleukin-2 (IL-2) production/release in Jurkat T cell line clone E6-1; assay: Jurkat IL-2 Production Assay; format: cell-based; conditions: Homo sapiens; Jurkat T cells stimulated with 15 μg/ml PHA for 22 hours; IL-2 in supernatant (AlphaLisa)
Procedure: Jurkat IL-2 Production Assay
The effect of compounds of the invention on Interleukin-2 (IL-2) production/release was tested in the Jurkat T cell line (ECACC) clone E6-1.
Jurkat T cells were cultured in DMEM/F12/Glutamax (Gibco) containing 10% FCS (Gibco), and maintained at 37° C., 5% CO2. Cells were split twice a week [5·10^6 (Mon-Thu) and 1·10^7 (Thu-Mon) cells/50 ml medium in T-175 ZK culture flasks, respectively].
Prior to experiment, cells were seeded on 96 well plates (Cellstar 96 Well; Cat No. 655180, Greiner bio-one) at a density of 5·10^5 cells/well in DMEM/F12/Glutamax (Gibco) containing 10% FCS (Gibco), and incubated for 60 min at 37° C., 5% CO2. Subsequently, compounds were added and cells were allowed to incubate for 30 min at 37° C., 5% CO2. Cells were then stimulated with 15 μg/ml Phyto-hemagglutinin (PHA; Sigma) for 22 hours at 37° C., 5% CO2.
Before sampling of the supernatants, cells were spun down (200*g/5 min/RT). The amount of IL-2 released into the supernatant was quantified with the human IL-2 AlphaLisa kit (Perkin Elmer) according to manufacturer's instructions. Luminescence proximity measurements were carried out in the Synergy H4 reader (BioTek) employing the fluorescence setting of the reader (ex: 680/30 nm; em: 620/40 nm).
Inhibition of IL-Production/Release in/from Jurkat T Cells Cells was Quantified as Follows:
Zero percent inhibition (MAX) was defined as the [IL-2] determined in supernatants derived from cells to which PHA & DMSO-only had been added instead of compound. Hundred percent inhibition (MIN) was defined as the [IL-2] determined in supernatants derived from cells that had been pre-treated with 1 μM CyclosporineA (Sigma) before the addition of 15 μg/ml PHA.
For routine IC50 determinations of compounds, 8 concentrations of a serial dilution (1:3.16) were tested, starting off from 10 μM.

T1 sequence (Q96D31 whole entry): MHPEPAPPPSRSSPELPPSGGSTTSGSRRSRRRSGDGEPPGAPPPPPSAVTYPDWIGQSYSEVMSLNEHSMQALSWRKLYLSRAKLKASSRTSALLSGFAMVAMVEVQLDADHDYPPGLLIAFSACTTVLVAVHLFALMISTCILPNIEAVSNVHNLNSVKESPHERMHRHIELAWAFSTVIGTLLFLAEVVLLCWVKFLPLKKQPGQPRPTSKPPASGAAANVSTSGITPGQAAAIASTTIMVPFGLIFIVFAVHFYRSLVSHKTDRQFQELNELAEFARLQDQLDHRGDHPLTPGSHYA

`COc1ccc(-c2nccs2)cc1-c1c(N)c(C(=O)Nc2c(F)cccc2F)nn1C` [Example 44, 4-Amino-N-(2,6-difluoro-phenyl)-5-(2-methoxy-5-thiazol-2-yl-phenyl)-1-methyl-1H-pyrazole-3-carboxylic acid amide] gave an inhibition at 10 µM [1] of less than 50% and an IC50 [2] of 1 to 5 µM.

`COc1ccc(-c2ncco2)cc1-c1c(N)c(C(=O)Nc2c(F)cncc2F)nn1C` [Example 45, 4-amino-N-(3,5-difluoropyridin-4-yl)-5-(2-methoxy-5-(oxazol-2-yl)phenyl)-1-methyl-1H-pyrazole-3-carboxamide] showed an inhibition at 10 µM [1] of less than 50% and an IC50 [2] of 1 to 5 µM.

`COc1ccc(-c2ncco2)cc1-c1c(N)c(C(=O)Nc2c(F)cccc2F)nn1C` [Example 46, 4-amino-N-(2,6-difluorophenyl)-5-(2-methoxy-5-(oxazol-2-yl)phenyl)-1-methyl-1H-pyrazole-3-carboxamide] showed an inhibition at 10 µM [1] of less than 50% and an IC50 [2] of 1 to 5 µM.

Work on `COc1ccc(-c2nccs2)cc1-c1c(N)c(C(=O)Nc2c(F)cncc2F)nn1C` [Example 47, 4-amino-N-(3,5-difluoropyridin-4-yl)-5-(2-methoxy-5-(thiazol-2-yl)phenyl)-1-methyl-1H-pyrazole-3-carboxamide] yielded an inhibition at 10 µM [1] of less than 50% and an IC50 [2] of 1 to 5 µM.

`COc1ccc(C2=NOC(C)(C)C2=O)cc1-c1cc(C(=O)Nc2c(F)cccc2F)nn1C` [Example 48] was tested, and the inhibition at 10 µM [1] was less than 50% and the IC50 [2] was 0.5 to 1 µM.

`Cn1nc(C(=O)Nc2c(F)cccc2F)c(N)c1-c1cc(-c2ncco2)ccc1OC(F)(F)F` [Example 49, 4-amino-N-(2,6-difluorophenyl)-1-methyl-5-(5-(oxazol-2-yl)-2-(trifluoromethoxy)phenyl)-1H-pyrazole-3-carboxamide] was tested, and the inhibition at 10 µM [1] was 50 to 70% and the IC50 [2] was 0.5 to 1 µM.

`Cn1nc(C(=O)Nc2c(F)cncc2F)c(N)c1-c1cc(-c2ncco2)ccc1OC(F)(F)F` [Example 50, 4-amino-N-(3,5-difluoropyridin-4-yl)-1-methyl-5-(5-(oxazol-2-yl)-2-(trifluoromethoxy)phenyl)-1H-pyrazole-3-carboxamide] was tested, and the inhibition at 10 µM [1] was less than 50% and the IC50 [2] was 1 to 5 µM.
